The target of the assay is hJAK3 kinase domain (aa781-end) (Homo sapiens (Human), UniProt P52333). The assay can be described thus: JAK3 activity inhibition, kinase reaction (HTRF, TK substrate-biotin).
Chain of hJAK3 kinase domain (aa781-end) (P52333 781-1124 limits assumed): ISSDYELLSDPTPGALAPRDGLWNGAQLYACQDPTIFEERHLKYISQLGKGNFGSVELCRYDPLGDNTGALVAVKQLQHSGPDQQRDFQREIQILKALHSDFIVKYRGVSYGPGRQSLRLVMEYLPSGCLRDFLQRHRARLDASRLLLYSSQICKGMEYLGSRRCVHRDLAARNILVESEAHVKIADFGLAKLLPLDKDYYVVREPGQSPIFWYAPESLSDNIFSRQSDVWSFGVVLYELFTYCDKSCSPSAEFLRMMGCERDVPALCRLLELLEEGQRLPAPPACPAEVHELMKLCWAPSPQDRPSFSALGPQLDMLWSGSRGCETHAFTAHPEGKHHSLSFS
Method: JAK3 activity inhibitory effects of test compounds were evaluated by the following kinase reactions.
In the kinase reactions, fused proteins (6His tag-fused hJAK3 kinase domain (aa781-end)) which were coexpressed in Sf21 cells and purified by Ni2+/NTA agarose were used.
A well in which ATP was not added was set out as a blank well.
Plates were let stand at room temperature for 10 minutes from starting reactions.
One hour after the addition of the buffer for detection, fluorescence counts of each well were measured by a fluorescence microplate reader.
Data were obtained by deducting the average Ratio of a blank well from Ratio of each well.
Regarding `N#CCCN1CCCC12CCN(c1ncnc3[nH]ccc13)C2` (racemic) [Compound 53], the midpoint of inhibition, the IC50, lay at 56 nM.

For `N#CCC(=O)N1CCCCC12CCN(c1c(Cl)cnc3[nH]ncc13)C2` (racemic) [Compound 93], half-maximal inhibition (IC50) was put at 110 nM.

On to `c1ccc(CN2CCCC23CCN(c2ncnc4[nH]ccc24)C3)cc1` (racemic) [Compound 90], for which the midpoint of inhibition, the IC50, lay at 550 nM.
